From PubChem BioAssay AID1963979 (Molecular Pharmacology Branch, DTP, NCI, 2024)
Where “and” joins values, the source holds several entries; their conditions need not be identical. Identical values can stand only once. Each block holds one molecule with its values, some of them ahead of it.

Tested on: 361931-004-R-J1-PDC multicell spheroid viability
Experiment: Anticancer human tumor 361931-004-R-J1-PDC patient-derived colon adenocarcinoma cell line growth inhibition [PI3K]
Conditions: for viability, T/C: stronger effect = lower value
From the text: Combinatorial screen of targeted agents with the PI3K inhibitors inavolisib, alpelisib, duvelisib, and copanlisib in multi-cell type tumor spheroids
A high-throughput screen of multi-cell type tumor spheroids was designed to identify active combinations of targeted small molecules and PI3K pathway inhibitors. Complex spheroids include a stromal component modeled by human endothelial cells (HUVEC) and fibroblasts modeled by human mesenchymal stem cells (MSCs). The concentration ranges selected for each drug and investigational agent were based upon clinically achievable concentrations if the clinical Cmax of the agent was known.
Compounds. The drugs and investigational agents: inavolisib (NSC800729), alpelisib (NSC765974), duvelisib (NSC772469), copanlisib (NSC816437), ipatasertib (NSC767898), afuresertib (NSC778305), talazoparib (NSC767125), sapanisertib (NSC764658), selumetinib (NSC741078), tovorafenib (DAY101, NSC766906), vemurafenib (NSC761431), ravoxertinib (NSC781343), sotorasib (NSC818433), MRTX1133 (NSC 836407), abemaciclib (NSC 768073), palbociclib (NSC758247), venetoclax (NSC 766270), SY5609 (NSC837396), enzalutamide (NSC755605), and darolutamide (NSC825331), were obtained from the National Cancer Institute (NCI) Developmental Therapeutics Program Chemical Repository. The FDA-approved anticancer drug set is available from the NCI Developmental Therapeutics Program. […] The stock solutions were prepared in dimethyl sulfoxide (DMSO, Sigma-Aldrich, St. Louis, MO, cat. D2650) at 800-fold the tested concentration and stored at -70 degrees C prior to their use. All drugs and investigational agents were tested over a range starting from a high concentration at or near the clinical Cmax and decreasing in half-log increments. If the clinical Cmax for an agent had not been determined, the highest concentration tested was 10 microM.
Cell Culture. All cells were maintained in an incubator at 37 degrees C and 5% CO2 with 95% humidity. The PDC lines were cultured according to standard operating procedures established by the NCI PDMR (https://pdmr.cancer.gov/sops/default.htm). All PDCs were thawed and cultured in Matrigel-coated flasks prepared with a working solution of 1X Ham's F-12 nutrient mix, without supplementation (Invitrogen, Waltham, MA, cat. 11765054), 100 U/mL penicillin-streptomycin (Invitrogen, cat. 15140122), and 2.5% Matrigel (Corning Inc., Corning, NY, cat. 354248) for the first three passages. The 354836-022-R-J1-PDC, 475296-252-R-J1-PDC, and 997726-040-R-J2-PDC lines were cultured in 6A media, which includes advanced DMEM/F-12 (Thermo Fisher Scientific, cat. 12634028), 10 mM HEPES (Thermo Fisher Scientific, cat. 15630080), 1X GlutaMAX supplement (Thermo Fisher Scientific, cat. 35050061), 0.1 mg/mL primocin (InvivoGen, San Diego, CA, cat. ant-pm-2), 10% defined fetal bovine serum, heat inactivated (HyClone Laboratories Inc., Logan, UT, cat. SH30070.03HI), 50% L-WRN conditioned media (ATCC, cat. CRL-3276), 1.25 mM N-Acetyl-L-cysteine (Sigma-Aldrich, cat. A9165), 10 mM nicotinamide (Sigma-Aldrich, cat. N0636), 1X B-27 supplement (Thermo Fisher Scientific, cat. 17504044), 1X N-2 supplement (Thermo Fisher Scientific, cat. 17502048), and 10 microM Y-27632 dihydrochloride (Tocris Bioscience, Bristol, United Kingdom, cat. 1254). The 624824-186-R-J2-PDC line was cultured in 6C/Colon 1B media, which includes all 6A media components plus 50 ng/mL human EGF recombinant protein (Thermo Fisher Scientific, cat. PHG0311). […]

[1] = curve of first compound, second compound 0.0316 µM
[2] = curve of first compound, second compound 0.1 µM
[3] = curve of first compound, second compound 0.316 µM
[4] = curve of first compound, second compound 1 µM
[5] = curve of first compound, second compound 3.16 µM
[6] = curve of first compound, second compound 10 µM
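Further: spheroids exposed to agents for seven days before readout.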

- IC50 [1]: 4.5 µM
- IC50 [2]: 3.7 µM
- IC50 [3]: 4.24 µM
- IC50 [4]: 4.32 µM
- IC50 [5]: 2.72 µM
- IC50 [6]: < 0.0316 µM
Structure (SMILES): CC1(C)CCC(Nc2ncc(C(F)(F)F)c(-c3c[nH]c4c(P(C)(C)=O)c(C#N)ccc34)n2)CN1 (centres undefined) + Cc1nc(NC(=O)N2CCCC2C(N)=O)sc1-c1ccnc(C(C)(C)C(F)(F)F)c1
- viability, T/C (second compound 0.0316 µM, first compound 0.0316 µM): 97.1%
- viability, T/C (second compound 0.0316 µM, first compound 0.1 µM): 82.6%
- viability, T/C (second compound 0.0316 µM, first compound 0.316 µM): 79.9%
- viability, T/C (second compound 0.0316 µM, first compound 1 µM): 79.9%
- viability, T/C (second compound 0.0316 µM, first compound 3.16 µM): 71.3%
- viability, T/C (second compound 0.0316 µM, first compound 10 µM): 5.89%
- viability, T/C (second compound 0.1 µM, first compound 0.0316 µM): 101%
- viability, T/C (second compound 0.1 µM, first compound 0.1 µM): 92.8%
- viability, T/C (second compound 0.1 µM, first compound 0.316 µM): 84.9%
- viability, T/C (second compound 0.1 µM, first compound 1 µM): 78.5%
- viability, T/C (second compound 0.1 µM, first compound 3.16 µM): 59.7%
- viability, T/C (second compound 0.1 µM, first compound 10 µM): 7.04%
- viability, T/C (second compound 0.316 µM, first compound 0.0316 µM): 89.8%
- viability, T/C (second compound 0.316 µM, first compound 0.1 µM): 84.4%
- viability, T/C (second compound 0.316 µM, first compound 0.316 µM): 74.8%
- viability, T/C (second compound 0.316 µM, first compound 1 µM): 70.6%
- viability, T/C (second compound 0.316 µM, first compound 3.16 µM): 69.1%
- viability, T/C (second compound 0.316 µM, first compound 10 µM): 5.97%
- viability, T/C (second compound 1 µM, first compound 0.0316 µM): 76.5%
- viability, T/C (second compound 1 µM, first compound 0.1 µM): 68.6%
- viability, T/C (second compound 1 µM, first compound 0.316 µM): 65.2%
- viability, T/C (second compound 1 µM, first compound 1 µM): 80.4%
- viability, T/C (second compound 1 µM, first compound 3.16 µM): 65.8%
- viability, T/C (second compound 1 µM, first compound 10 µM): 6.15%
- viability, T/C (second compound 3.16 µM, first compound 0.0316 µM): 73.5%
- viability, T/C (second compound 3.16 µM, first compound 0.1 µM): 62.5%
- viability, T/C (second compound 3.16 µM, first compound 0.316 µM): 59.5%
- viability, T/C (second compound 3.16 µM, first compound 1 µM): 57.5%
- viability, T/C (second compound 3.16 µM, first compound 3.16 µM): 51.4%
- viability, T/C (second compound 3.16 µM, first compound 10 µM): 4.43%
- viability, T/C (second compound 10 µM, first compound 0.0316 µM): 49.1%
- viability, T/C (second compound 10 µM, first compound 0.1 µM): 51.9%
- viability, T/C (second compound 10 µM, first compound 0.316 µM): 44.9%
- viability, T/C (second compound 10 µM, first compound 1 µM): 44.1%
- viability, T/C (second compound 10 µM, first compound 3.16 µM): 39.5%
- viability, T/C (second compound 10 µM, first compound 10 µM): 1.98%

- IC50 (curve of compound): > 10 µM
Structure (SMILES): C=CC(=O)N1CCN(c2nc(=O)n(-c3c(C)ccnc3C(C)C)c3nc(-c4c(O)cccc4F)c(F)cc23)C(C)C1 (centres undefined)
- viability, T/C (compound 0.0316 µM): 99.5% [middle of 4 runs]
- viability, T/C (compound 0.1 µM): 95.4% [middle of 4 runs]
- viability, T/C (compound 0.316 µM): 105% [middle of 4 runs]
- viability, T/C (compound 1 µM): 103% [middle of 4 runs]
- viability, T/C (compound 3.16 µM): 100% [middle of 4 runs]
- viability, T/C (compound 10 µM): 99.2% [middle of 4 runs]

- IC50 (curve of compound): 4.94 µM and 4.18 µM and 5.61 µM
Structure (SMILES): CC1(C)CCC(CN2CCN(c3ccc(C(=O)NS(=O)(=O)c4ccc(NCC5CCOCC5)c([N+](=O)[O-])c4)c(Oc4cnc5[nH]ccc5c4)c3)CC2)=C(c2ccc(Cl)cc2)C1
- viability, T/C (compound 0.0316 µM): 100% [middle of 4 runs]
- viability, T/C (compound 0.1 µM): 101% [middle of 4 runs]
- viability, T/C (compound 0.316 µM): 101% [middle of 4 runs]
- viability, T/C (compound 1 µM): 102% [middle of 4 runs]
- viability, T/C (compound 10 µM): 3.75% [middle of 4 runs]

- IC50 (compound alone, run of 05/09/2023): > 10 µM
Structure (SMILES): CC(Nc1ncnc2nc[nH]c12)c1cc2cccc(Cl)c2c(=O)n1-c1ccccc1 (centres undefined)
- viability, T/C (compound 0.0316 µM): 106% [middle of 8 runs]
- viability, T/C (compound 0.1 µM): 102% [middle of 8 runs]
- viability, T/C (compound 0.316 µM): 105% [middle of 8 runs]
- viability, T/C (compound 1 µM): 104% [middle of 8 runs]
- viability, T/C (compound 3.16 µM): 103% [middle of 8 runs]
- viability, T/C (compound 10 µM): 102% [middle of 8 runs]

- IC50 [1]: > 3 µM
- IC50 [2]: > 3 µM
- IC50 [3]: > 3 µM
- IC50 [4]: > 3 µM
- IC50 [5]: 2.88 µM
- IC50 [6]: 1.67 µM
Structure (SMILES): Cn1cnc2c(F)c(Nc3ccc(Br)cc3Cl)c(C(=O)NOCCO)cc21 + CC(Nc1ncnc2nc[nH]c12)c1cc2cccc(Cl)c2c(=O)n1-c1ccccc1
- viability, T/C (second compound 0.0316 µM, first compound 0.00949 µM): 98.1%
- viability, T/C (second compound 0.0316 µM, first compound 0.03 µM): 95.3%
- viability, T/C (second compound 0.0316 µM, first compound 0.0949 µM): 94%
- viability, T/C (second compound 0.0316 µM, first compound 0.3 µM): 87.4%
- viability, T/C (second compound 0.0316 µM, first compound 0.949 µM): 82%
- viability, T/C (second compound 0.0316 µM, first compound 3 µM): 59.1%
- viability, T/C (second compound 0.1 µM, first compound 0.00949 µM): 109%
- viability, T/C (second compound 0.1 µM, first compound 0.03 µM): 96.2%
- viability, T/C (second compound 0.1 µM, first compound 0.0949 µM): 94.2%
- viability, T/C (second compound 0.1 µM, first compound 0.3 µM): 82.9%
- viability, T/C (second compound 0.1 µM, first compound 0.949 µM): 87.4%
- viability, T/C (second compound 0.1 µM, first compound 3 µM): 61.7%
- viability, T/C (second compound 0.316 µM, first compound 0.00949 µM): 105%
- viability, T/C (second compound 0.316 µM, first compound 0.03 µM): 102%
- viability, T/C (second compound 0.316 µM, first compound 0.0949 µM): 88.8%
- viability, T/C (second compound 0.316 µM, first compound 0.3 µM): 85.8%
- viability, T/C (second compound 0.316 µM, first compound 0.949 µM): 82.9%
- viability, T/C (second compound 0.316 µM, first compound 3 µM): 58.1%
- viability, T/C (second compound 1 µM, first compound 0.00949 µM): 97.9%
- viability, T/C (second compound 1 µM, first compound 0.03 µM): 94.4%
- viability, T/C (second compound 1 µM, first compound 0.0949 µM): 93.3%
- viability, T/C (second compound 1 µM, first compound 0.3 µM): 79.5%
- viability, T/C (second compound 1 µM, first compound 0.949 µM): 81.4%
- viability, T/C (second compound 1 µM, first compound 3 µM): 59.7%
- viability, T/C (second compound 3.16 µM, first compound 0.00949 µM): 92.8%
- viability, T/C (second compound 3.16 µM, first compound 0.03 µM): 96.2%
- viability, T/C (second compound 3.16 µM, first compound 0.0949 µM): 90.9%
- viability, T/C (second compound 3.16 µM, first compound 0.3 µM): 91.3%
- viability, T/C (second compound 3.16 µM, first compound 0.949 µM): 77%
- viability, T/C (second compound 3.16 µM, first compound 3 µM): 48.9%
- viability, T/C (second compound 10 µM, first compound 0.00949 µM): 99.1%
- viability, T/C (second compound 10 µM, first compound 0.03 µM): 92.4%
- viability, T/C (second compound 10 µM, first compound 0.0949 µM): 86.9%
- viability, T/C (second compound 10 µM, first compound 0.3 µM): 85.2%
- viability, T/C (second compound 10 µM, first compound 0.949 µM): 66.5%
- viability, T/C (second compound 10 µM, first compound 3 µM): 33%
